Experimental data taken from ChEMBL document CHEMBL4665869, “New thiazolopyrimidine as anticancer agents: Synthesis, biological evaluation, DNA binding, molecular modeling and ADMET study” (Bioorg Med Chem Lett, 2020).
In brackets after ≈: the same amount, converted by molar mass.

Key:
A549 = test: Growth inhibition of human A549 cells at 10 uM relative to control; assay type: functional; settings: read-out: GI
A498 = test: Growth inhibition of human A498 cells at 10 uM relative to control; assay type: functional; settings: read-out: GI
SNB-19 = test: Growth inhibition of human SNB-19 cells at 10 uM relative to control; assay type: functional; settings: read-out: GI
HOP-62 = test: Growth inhibition of human HOP-62 cells at 10 uM relative to control; assay type: functional; settings: read-out: GI
CCRF-CEM = test: Growth inhibition of human CCRF-CEM cells at 10 uM relative to control; assay type: functional; settings: read-out: GI
HCC 2998 = test: Growth inhibition of human HCC 2998 cells at 10 uM relative to control; assay type: functional; settings: read-out: GI
UO-31 = test: Growth inhibition of human UO-31 cells at 10 uM relative to control; assay type: functional; settings: read-out: GI
SK-OV-3 = test: Growth inhibition of human SK-OV-3 cells at 10 uM relative to control; assay type: functional; settings: read-out: GI
HL-60(TB) = test: Growth inhibition of human HL-60(TB) cells at 10 uM relative to control; assay type: functional; settings: read-out: GI
U-251 = test: Growth inhibition of human U-251 cells at 10 uM relative to control; assay type: functional; settings: read-out: GI
MDA-MB-468 = test: Growth inhibition of human MDA-MB-468 cells at 10 uM relative to control; assay type: functional; settings: read-out: GI
786-0 = test: Growth inhibition of human 786-0 cells at 10 uM relative to control; assay type: functional; settings: read-out: GI
MDA-MB-435 = test: Growth inhibition of human MDA-MB-435 cells at 10 uM relative to control; assay type: functional; settings: read-out: GI
HT-29 = test: Growth inhibition of human HT-29 cells at 10 uM relative to control; assay type: functional; settings: read-out: GI
OVCAR-8 = test: Growth inhibition of human OVCAR-8 cells at 10 uM relative to control; assay type: functional; settings: read-out: GI
NCI-H522 = test: Growth inhibition of human NCI-H522 cells at 10 uM relative to control; assay type: functional; settings: read-out: GI
NCI/ADR-RES = test: Growth inhibition of human NCI/ADR-RES cells at 10 uM relative to control; assay type: functional; settings: read-out: GI
MCF7 = test: Growth inhibition of human MCF7 cells at 10 uM relative to control; assay type: functional; settings: read-out: GI
KM12 = test: Growth inhibition of human KM12 cells at 10 uM relative to control; assay type: functional; settings: read-out: GI
MOLT-4 = test: Growth inhibition of human MOLT-4 cells at 10 uM relative to control; assay type: functional; settings: read-out: GI
DU-145 = test: Growth inhibition of human DU-145 cells at 10 uM relative to control; assay type: functional; settings: read-out: GI
LOX IMVI = test: Growth inhibition of human LOX IMVI cells at 10 uM relative to control; assay type: functional; settings: read-out: GI
RPMI-8226 = test: Growth inhibition of human RPMI-8226 cells at 10 uM relative to control; assay type: functional; settings: read-out: GI
SNB-75 = test: Growth inhibition of human SNB-75 cells at 10 uM relative to control; assay type: functional; settings: read-out: GI
OVCAR-5 = test: Growth inhibition of human OVCAR-5 cells at 10 uM relative to control; assay type: functional; settings: read-out: GI
Hs-578T = test: Growth inhibition of human Hs-578T cells at 10 uM relative to control; assay type: functional; settings: read-out: GI
SK-MEL-2 = test: Growth inhibition of human SK-MEL-2 cells at 10 uM relative to control; assay type: functional; settings: read-out: GI
UACC-257 = test: Growth inhibition of human UACC-257 cells at 10 uM relative to control; assay type: functional; settings: read-out: GI
HCT-15 = test: Growth inhibition of human HCT-15 cells at 10 uM relative to control; assay type: functional; settings: read-out: GI
NCI-H226 = test: Growth inhibition of human NCI-H226 cells at 10 uM relative to control; assay type: functional; settings: read-out: GI
NCI-H23 = test: Growth inhibition of human NCI-H23 cells at 10 uM relative to control; assay type: functional; settings: read-out: GI
SF-295 = test: Growth inhibition of human SF-295 cells at 10 uM relative to control; assay type: functional; settings: read-out: GI
RXF 393 = test: Growth inhibition of human RXF 393 cells at 10 uM relative to control; assay type: functional; settings: read-out: GI
Malme-3M = test: Growth inhibition of human Malme-3M cells at 10 uM relative to control; assay type: functional; settings: read-out: GI
OVCAR-4 = test: Growth inhibition of human OVCAR-4 cells at 10 uM relative to control; assay type: functional; settings: read-out: GI
SF-539 = test: Growth inhibition of human SF-539 cells at 10 uM relative to control; assay type: functional; settings: read-out: GI
SW-620 = test: Growth inhibition of human SW-620 cells at 10 uM relative to control; assay type: functional; settings: read-out: GI
TK-10 = test: Growth inhibition of human TK-10 cells at 10 uM relative to control; assay type: functional; settings: read-out: GI
MDA-MB-231 = test: Growth inhibition of human MDA-MB-231 cells at 10 uM relative to control; assay type: functional; settings: read-out: GI
COLO 205 = test: Growth inhibition of human COLO 205 cells at 10 uM relative to control; assay type: functional; settings: read-out: GI
PC-3 = test: Growth inhibition of human PC-3 cells at 10 uM relative to control; assay type: functional; settings: read-out: GI
HCT-116 = test: Growth inhibition of human HCT-116 cells at 10 uM relative to control; assay type: functional; settings: read-out: GI
SK-MEL-28 = test: Growth inhibition of human SK-MEL-28 cells at 10 uM relative to control; assay type: functional; settings: read-out: GI
NCI-H460 = test: Growth inhibition of human NCI-H460 cells at 10 uM relative to control; assay type: functional; settings: read-out: GI
DNA = test: Displacement of methyl green from DNA (unknown origin) assessed as DNA intercalation after 24 hrs by colorimetric assay; assay type: nucleic-acid assay
K562 = test: Growth inhibition of human K562 cells at 10 uM relative to control; assay type: functional; settings: read-out: GI
SF-268 = test: Growth inhibition of human SF-268 cells at 10 uM relative to control; assay type: functional; settings: read-out: GI
UACC-62 = test: Growth inhibition of human UACC-62 cells at 10 uM relative to control; assay type: functional; settings: read-out: GI
SK-MEL-5 = test: Growth inhibition of human SK-MEL-5 cells at 10 uM relative to control; assay type: functional; settings: read-out: GI
BT-549 = test: Growth inhibition of human BT-549 cells at 10 uM relative to control; assay type: functional; settings: read-out: GI
CAKI-1 = test: Growth inhibition of human CAKI-1 cells at 10 uM relative to control; assay type: functional; settings: read-out: GI
SN12C = test: Growth inhibition of human SN12C cells at 10 uM relative to control; assay type: functional; settings: read-out: GI
M14 = test: Growth inhibition of human M14 cells at 10 uM relative to control; assay type: functional; settings: read-out: GI
IGROV-1 = test: Growth inhibition of human IGROV-1 cells at 10 uM relative to control; assay type: functional; settings: read-out: GI
NCI-H322M = test: Growth inhibition of human NCI-H322M cells at 10 uM relative to control; assay type: functional; settings: read-out: GI
ACHN = test: Growth inhibition of human ACHN cells at 10 uM relative to control; assay type: functional; settings: read-out: GI
SR = test: Growth inhibition of human SR cells at 10 uM relative to control; assay type: functional; settings: read-out: GI
T47D = test: Growth inhibition of human T47D cells at 10 uM relative to control; assay type: functional; settings: read-out: GI

Structure (SMILES): CCOC(=O)C1=CSC2=NC(/C=C/c3ccc(Cl)cc3)=CC(c3ccc(Cl)cc3)N12 (stereo not drawn)
- inhibition of growth at 10 µM (A549): < 10%
- inhibition of growth at 10 µM (A498): 11.8%
- inhibition of growth at 10 µM (SNB-19): < 10%
- inhibition of growth at 10 µM (HOP-62): < 10%
- inhibition of growth at 10 µM (CCRF-CEM): < 10%
- inhibition of growth at 10 µM (HCC 2998): < 10%
- inhibition of growth at 10 µM (UO-31): < 10%
- inhibition of growth at 10 µM (SK-OV-3): < 10%
- inhibition of growth at 10 µM (HL-60(TB)): < 10%
- inhibition of growth at 10 µM (U-251): 14.6%
- inhibition of growth at 10 µM (MDA-MB-468): < 10%
- inhibition of growth at 10 µM (786-0): < 10%
- inhibition of growth at 10 µM (MDA-MB-435): < 10%
- inhibition of growth at 10 µM (HT-29): < 10%
- inhibition of growth at 10 µM (OVCAR-8): < 10%
- inhibition of growth at 10 µM (NCI-H522): < 10%
- inhibition of growth at 10 µM (NCI/ADR-RES): < 10%
- inhibition of growth at 10 µM (MCF7): < 10%
- inhibition of growth at 10 µM (KM12): < 10%
- inhibition of growth at 10 µM (MOLT-4): 16.7%
- inhibition of growth at 10 µM (DU-145): < 10%
- inhibition of growth at 10 µM (LOX IMVI): < 10%
- inhibition of growth at 10 µM (RPMI-8226): < 10%
- inhibition of growth at 10 µM (SNB-75): < 10%
- inhibition of growth at 10 µM (OVCAR-5): < 10%
- inhibition of growth at 10 µM (Hs-578T): < 10%
- inhibition of growth at 10 µM (SK-MEL-2): < 10%
- inhibition of growth at 10 µM (UACC-257): < 10%
- inhibition of growth at 10 µM (HCT-15): < 10%
- inhibition of growth at 10 µM (NCI-H226): < 10%
- inhibition of growth at 10 µM (NCI-H23): < 10%
- inhibition of growth at 10 µM (SF-295): < 10%
- inhibition of growth at 10 µM (RXF 393): < 10%
- inhibition of growth at 10 µM (Malme-3M): < 10%
- inhibition of growth at 10 µM (OVCAR-4): < 10%
- inhibition of growth at 10 µM (SF-539): < 10%
- inhibition of growth at 10 µM (SW-620): < 10%
- inhibition of growth at 10 µM (TK-10): < 10%
- inhibition of growth at 10 µM (MDA-MB-231): < 10%
- inhibition of growth at 10 µM (COLO 205): < 10%
- inhibition of growth at 10 µM (PC-3): < 10%
- inhibition of growth at 10 µM (HCT-116): < 10%
- inhibition of growth at 10 µM (SK-MEL-28): < 10%
- inhibition of growth at 10 µM (NCI-H460): < 10%
- IC50 (DNA): 79.28 µg/mL (≈ 173 µM)
- inhibition of growth at 10 µM (K562): 12.4%
- inhibition of growth at 10 µM (SF-268): < 10%
- inhibition of growth at 10 µM (UACC-62): < 10%
- inhibition of growth at 10 µM (SK-MEL-5): < 10%
- inhibition of growth at 10 µM (BT-549): < 10%
- inhibition of growth at 10 µM (CAKI-1): < 10%
- inhibition of growth at 10 µM (SN12C): < 10%
- inhibition of growth at 10 µM (M14): < 10%
- inhibition of growth at 10 µM (IGROV-1): < 10%
- inhibition of growth at 10 µM (NCI-H322M): < 10%
- inhibition of growth at 10 µM (ACHN): < 10%
- inhibition of growth at 10 µM (SR): < 10%
- inhibition of growth at 10 µM (T47D): < 10%
